Data taken from US11933781B2, “Fibrosis model and methods of use thereof” (The Regents of the University of Colorado, priority 2020, dated 2024).

Columns and labels:
Type in all cases: cell-based, human
COPD HBECs = assay: Induction of jamming in COPD HBECs
Text: (§1) Epithelial Cell Culture: Primary human bronchial epithelial cells (HBECs) were obtained from two sources (1) provided by Dr. Hong Wei Chu at National Jewish Health, or (2) lung transplant collection at the University of Colorado Hospital (IRB protocol: 11-1664 or 18-0572). Epithelial cells from bronchial brushes or CT-guided dissection were expanded to passage 2 before being cultured at air liquid interface (ALI). Control (N=11), IPF (N=6), and COPD (N=3) were age matched and controls had no history of chronic lung disease (Table 1). Cells were seeded on 24-Transwell plates (Corning, Corning, New York, 3470) coated with type I collagen (Corning, Corning, New York, 354236) and maintained under submerged conditions for five to seven days until the cells reached confluence. Culture media was a 1:1 mixture of DMEM and BEBM (Lonza, Basel, Switzerland, CC170) supplemented with retinoic acid (Sigma-Aldrich, Germany, R-2625) nystatin (Sigma-Aldrich, Germany N1638), and bovine serum albumin (FisherSci, Thermo Fisher Scientific, Waltham, Massachusetts BP9703100). Once confluent, apical media was removed and maintained at ALI. HBECs began recapitulating the in vivo airway, with production of mucus (6-9 days after establishing ALI) and development of a pseudostratified epithelium. Cells were switched to a starvation media (lacking supplemental epidermal growth factor, hydrocortisone, and bovine pituitary extract) 24 hours prior to experimentation.
For inhibitor, activator, and ligand treatments HBECs were cultured in a starvation media in the absence of EGF, hydrocortisone, and bovine pituitary extract for 24 hours prior to treatment initiation. Cells were then treated for 2-4 hours (with exception of AREG neutralizing antibody which was maintained in the culture media), media was aspirated, the wells were washed with warm PBS and then replaced with fresh starvation media without inhibitor/activator/ligand present, and subsequently imaged. For experiments that required subsequent media changes (96 hour) cells fresh starvation media was changed 48 hours afterwards. […]

IPF HBECs [1] = assay: Induction of the unjammed-to-jammed transition (UJT) in IPF HBECs; conditions: day 14 IPF HBECs
Text: as §1
(§2) For inhibitor, activator, and ligand treatments HBECs were cultured in a starvation media in the absence of EGF, hydrocortisone, and bovine pituitary extract for 24 hours prior to treatment initiation. Cells were then treated for 2-4 hours (with exception of AREG neutralizing antibody which was maintained in the culture media), media was aspirated, the wells were washed with warm PBS and then replaced with fresh starvation media without inhibitor/activator/ligand present, and subsequently imaged. For experiments that required subsequent media changes (96 hour) cells fresh starvation media was changed 48 hours afterwards.
(§3) Live Cell Imaging and Dynamics Measurement: To assess cellular dynamics, time-lapse microscopy and subsequent analysis were completed. Two imaging schemes were utilized: (1) images were taken every 5 minutes for 200 minutes during HBEC differentiation; (2) images were taken every 20 minutes for 48, 96, or 144 hours after HBEC experimental intervention. Phase contrast images were acquired on a Keyence BZ-X810 with a stage incubator (37° C., 5% CO2). Dynamic analysis followed previously published workflows (10-12, 22). Briefly, using phase contrast images instantaneous velocities were mapped by particle image velocimetry utilizing open source PIVLab on MATLAB. Velocity fields were obtained with 2 passes (64×64 and 32×32 pixel size interrogation window with 50% overlap) with a pixel size of 0.75488 μm using a Fast Fourier Transformation method. Trajectories from the PIV were seeded onto a grid and obtained via forward-integration of subsequent fields. These values were then used to determine mean-squared-displacement (MSD) and self-overlap order parameter (Q): MSD(Δt)= ? ri(t+Δt)−ri(t)|2 ? and Q(Δt)=N−1ΣwiNi=1 as previously published. Instantaneous room mean squared velocity (VRMS) of the monolayer was obtained as previously published: VRMS(t)=√1MΣ ? |v(t)2 ? jMj=1
(§4) Cell Shape Analysis: Cell shape measurements were achieved via cell border delineation by F-actin immunofluorescence. Images were segmented utilizing SeedWater Segmenter. Similar to previously published workflows, we segmented images which were subsequently analyzed in ImageJ for the shape index (q=Perimeter√Area) and aspect ratio (major and minor axis) for all cells within a given field of view. For each experimental condition an n≥3 was used with at least 3 independent wells per donor per treatment condition. […]

IPF HBECs [2] = assay: YAP immunofluorescence in IPF HBECs; conditions: IPF HBECs 48 hours after treatment
Description: (§5) Immunofluorescence staining: Cells were fixed with 4% paraformaldehyde in PBS with calcium and magnesium for 30 minutes at room temperature. Cells were then washed with PBS and subsequently permeabilized (Triton™-X, at 0.1%) and blocked with 5% bovine serum albumin in PBS for 1 hour at room temperature. Cells were then incubated for >16 hours at 4 degrees with primary antibodies. Primary antibodies were aspirated, and cells were washed with PBS+0.1% Tween-20 at room temperature. Cells were then incubated for 1 hour at room temperature with secondary antibodies (1:500) and/or Phalloidin-iFluor™ 488 1:2000. Cells were stained with 4′,6-diamidino-2-phenylindole at 1:20000 (BioLegend®, San Diego, California, 422801). Subsequently, transwell membranes, or hydrogels, were removed from the well and mounted on glass slides with Fluoromount-G® (SouthernBiotech™, Birmingham, Alabama, 0100-01). Slides were then visualized using an Olympus BX63 microscope (Olympus, Tokyo, Japan).
(§6) Immunofluorescence and cell number quantification for HBEC experiments: For total fluorescence quantification (i.e., ERBB2), all images were processed in the same manner with the same microscopy settings. To determine mean fluorescence the channel of interest was separated in ImageJ, and the mean gray value was measured for the field of view and normalized by the total number of cells. Cell counting was achieved by taking 40×images and manually counting all nuclei in a field of view (approximately 200-300). The number of cells also expressing the marker of interested were then counted and normalized by the total number of cells per field. For each experiment a biological n≥3 was used with at least 5 fields of view per well and at least 2 wells being counted in total per donor.

IPF HBECs [3] = assay: Gene expression of ERBB receptors, YAP target genes and MUC5B in IPF HBECs; conditions: IPF HBECs after inhibition
Description: Quantitative RT-PCR Analysis: Total RNA was extracted using RNeasy® Mini kit (Qiagen, Hilden, Germany) and quantified by NanoDrop™ (ThermoFisher Scientific™, Waltham, Massachusetts).Reverse transcription was completed using the High Capacity cDNA Reverse Transcription Kit (Applied Biosystems™, Thermo Fisher Scientific™, Waltham, Massachusetts). Gene expression was analyzed by using TaqMan® Advanced Master Mix (Thermo Fisher Scientific™, Waltham, Massachusetts and TaqMan® assays. They were subsequently run in triplicate on the ViiA™ 7 Real-Time machine (Thermo Fisher Scientific™, Waltham, Massachusetts). Primer IDs were: β-ACTIN, Hs01060665_g1; MUC5B, Hs00861595_m1; MUC5AC, Hs01365616_m1; EGFR, Hs0176090_m1; ERBB2, Hs01001580_m1; ZEB1, Hs00232783_m1; SNAI1, Hs00195591_m1; VIM, Hs00185584_m1; CTGF, Hs00170014_m1; AREG, Hs00950669_m1; FN1, Hs01549976_m1; PDGFRA, Hs00998018_m1; PDGFA, Hs00234994_m1; PDGFRB, Hs01019589_m1; PDGFB, Hs00966522_m1; TGFBRI, Hs00610320_m1; TGFBI, Hs00998133_m1; COL1A1, Hs00164004_m1; ACTA2, Hs00426835; MMP3, Hs00968305_m1; MMP9, Hs00957562_m1; TIMP1, Hs01092512_g1; and TIMP2, Hs00234278_m1.

control HBECs [4] = assay: Induced unjamming of control HBECs at air-liquid interface (live cell imaging, cell shape); conditions: for ability to induce an unjammed state in control epithelia: control HBECs at ALI day 14; for induction of unjammed state in mature monolayer: control HBECs treated at ALI day 28; for time at which migratory capacity of control epithelia begins to diminish: treatment at day 14 of ALI
Text: as §1, §2, §3, §4

control HBECs [5] = assay: Immunofluorescence of Ki67 and YAP in control HBECs; conditions: for cell type showing YAP nuclear localization: control HBECs after treatment; for YAP nuclear localization / proliferation (Ki67+): control HBECs, 48 hours after treatment
Description: as §5, §6

control HBECs [6] = assay: Barrier function (TEER) of control HBECs
Description: Barrier function measurements: The transepithelial electrical resistance (TEER) was assessed utilizing the Millicell® ERS-2 Voltohmeter (MilliporeSigma™, Burlington, Massachusetts, MERS00002). Briefly, cells were incubated with PBS with calcium and magnesium (at 37 degrees for 20 minutes prior to barrier measurement). The probe was inserted, and the resultant ohm reading was recorded. The final value was calculated by:
This value was subtracted by 100 (the resistance of a blank well) and multiplied by 0.33 (the surface area of a single well in a 24 well plate). A minimum of 3 wells were recorded per donor per treatment condition. These values were subsequently averaged per treatment and graphed.

[7] = control HBECs by MUC5B promoter variant status

Row | Compound | induction of the UJT (jamming) in IPF epithelia (IPF HBECs [1]) | YAP nuclear exclusion (IPF HBECs [2]) | transcription of ERBB receptors, YAP target genes and MUC5B (IPF HBECs [3]) | ability to induce an unjammed state in control epithelia (control HBECs [4]) | also measured
1 | COc1cc2ncnc(Nc3cccc(Cl)c3)c2cc1OC [AG1478, Tyrphostin AG-1478] | halted migration and induced a cobblestone appearance in the epithelia | results in YAP nuclear exclusion | reduced the transcription of ERBB receptors, YAP target genes, and MUC5B nearly back to control levels | – | induction of jamming in COPD epithelia (COPD HBECs): not responsive to ERBB-YAP inhibition
2 | C#Cc1cccc(Nc2ncnc3cc(OCCOC)c(OCCOC)cc23)c1 [Erlotinib] | induces jamming in IPF epithelia | results in YAP nuclear exclusion | decreases 738 ERBB-YAP target gene expression | – | –
3 | CNc1nc(-c2ccc3c(N)n[nH]c3c2)cc(N2C[C@@H](C(=O)NC3CCCCC3)CC[C@H]2C)n1 [GSK2334470] | induces jamming in IPF epithelia | results in YAP nuclear exclusion | – | – | –
4 | CS(=O)(=O)CCNCc1ccc(-c2ccc3ncnc(Nc4ccc(OCc5cccc(F)c5)c(Cl)c4)c3c2)o1 [Lapatinib] | induces jamming in IPF epithelia | results in YAP nuclear exclusion | decreases 738 ERBB-YAP target gene expression | – | –
5 | NC1(c2ccc(-c3nc4ccn5c(=O)[nH]nc5c4cc3-c3ccccc3)cc2)CCC1 [MK-2206] | did not induce the UJT | – | – | – | –
6 | FC(F)(F)c1ccc(/C=C/c2nc(COc3ccc(CCCCn4ccnn4)cc3)co2)cc1 [Mubritinib] | induces jamming in IPF epithelia | results in YAP nuclear exclusion | decreases 738 ERBB-YAP target gene expression | – | –
7 | NCC(=O)Nc1ccc(-n2nc(C(F)(F)F)cc2-c2ccc3c(ccc4ccccc43)c2)cc1 [OSU03012, OSU-03012] | induces jamming in IPF epithelia | results in YAP nuclear exclusion | decreases 738 ERBB-YAP target gene expression | – | induction of jamming in COPD epithelia (COPD HBECs): not responsive to ERBB-YAP inhibition
8 | CN1CCN(c2nc(C3=C(c4c[nH]c5ccccc45)C(=O)NC3=O)c3ccccc3n2)CC1 [Sotrastaurin] | did not induce the UJT | – | – | – | –
9 | CN1C(=O)c2sccc2N(C)c2nc(Nc3ccc(S(N)(=O)=O)cc3)ncc21 [XMU-MP-1] | – | – | – | had the ability to elicit an unjammed state | induction of unjammed state in mature monolayer (control HBECs [4]): unjammed state was induced regardless of monolayer maturity; time at which migratory capacity of control epithelia begins to diminish (control HBECs [4]): ~36 h; cell type showing YAP nuclear localization (control HBECs [5]): predominantly in multi-ciliated cells (FOXJ1+); YAP nuclear localization (control HBECs [5]): did lead to YAP nuclear localization; proliferation (Ki67+) (control HBECs [5]): neither AREG nor XMU treatment resulted in increased proliferation
10 | AREG: Recombinant amphiregulin, low affinity EGFR ligand (R&D Systems 262-AR) | – | – | – | only AREG treatment had the ability to induce an unjammed state | persistence in the unjammed state, rs35705950 GT vs GG epithelia (control HBECs [4]; [7]): persisted in the unjammed state significantly longer than GG epithelia; root-mean-squared velocity, rs35705950 GT vs GG epithelia (control HBECs [4]; [7]): higher root-mean-squared velocity than their GG counterparts; induction of unjammed state in mature monolayer (control HBECs [4]): unjammed state was induced regardless of monolayer maturity; time at which migratory capacity of control epithelia begins to diminish (control HBECs [4]): ~36 h; cell type showing YAP nuclear localization (control HBECs [5]): predominantly in multi-ciliated cells (FOXJ1+); YAP nuclear localization (control HBECs [5]): did lead to YAP nuclear localization; proliferation (Ki67+) (control HBECs [5]): neither AREG nor XMU treatment resulted in increased proliferation; barrier function in genotype-dependent unjamming (control HBECs [6]; control HBECs GG or GT): did not alter barrier function; barrier function (TEER) after treatment (control HBECs [6]; control HBECs at ALI day 14): without diminishing barrier function
11 | EGF: High-affinity EGFR ligand, EGFR agonist (R&D Systems 263-EG) (NSDSECPLSHDGYCLHDGVCMYIEALDKYACNCVVGYIGERCQYRDLKWWELR; Epidermal growth factor; UniProt P01133 971-1023, looked up) | – | – | – | only AREG treatment had the ability to induce an unjammed state | –
12 | TGFα: High-affinity EGFR ligand, EGFR agonist (R&D Systems 239-A-100) | – | – | – | only AREG treatment had the ability to induce an unjammed state | –
